Data published in patent publication US20230111310A1, “CARBOXYLIC ACID DERIVATIVE-SUBSTITUTED IMINO ARYL COMPOUND, PREPARATION METHOD THEREFOR, HERBICIDAL COMPOSITION AND USE THEREOF” (Qingdao Kingagroot Chemical Compound Co., Ltd., priority 2020, published 2023).

Legend:
Assay type in all cases: in vivo
Abutilon theophrasti [1] = test: Weeding effect in post-emergence stage; details: level of fresh weight growth control rate
Summary of the method: (§1)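 Pot-grown greenhouse plants sprayed at 2–3 leaf stage, 2 weeks after sowing, with compound in acetone/Tween 80 plus methyl oleate emulsifiable concentrate (1.5 liter/ha) at 500–7.5 g/ha. Growth control rated 3 weeks after treatment; mean of three replicates.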

Alopecurus japonicus = test: Weeding effect in post-emergence stage; details: level of fresh weight growth control rate
Summary of the method: as §1

Digitaria sanguinalis = test: Weeding effect in post-emergence stage; details: level of fresh weight growth control rate
Summary of the method: as §1

Eleusine indica = test: Weeding effect in post-emergence stage; details: for Weeding effect in post-emergence stage, Eleusine indica: level of fresh weight growth control rate; for activity level (growth control rate) Eleusine indica: post-emergence, 7.5 g/ha, 3 weeks
Summary of the method: as §1

Setaria viridis [2] = test: Weeding effect in post-emergence stage; details: level of fresh weight growth control rate
Summary of the method: as §1

Amaranthus retroflexus [3] = test: Weeding effect in post-emergence stage; details: 7.5 g/ha, 3 weeks
Summary of the method: as §1

Echinochloa crusgalli = test: Weeding effect in post-emergence stage; details: for Weeding effect in post-emergence stage, Echinochloa crusgalli: level of fresh weight growth control rate; for activity level (growth control rate) Echinochloa crusgalli: post-emergence, 7.5 g/ha, 3 weeks
Summary of the method: as §1

Abutilon theophrasti [4] = test: Weeding effect in pre-emergence stage; details: 30 g/ha, 4 weeks
Summary of the method: (§2)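 Test compounds were dissolved in acetone with tween 80, diluted with water and sprayed right after sowing, with seeds covered by 0.5-2 cm of soil. Rates were 500 to 7.5 g/ha. Growth control was scored against activity-level criteria after 4 weeks in the greenhouse.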

Amaranthus retroflexus [5] = test: Weeding effect in pre-emergence stage; details: 30 g/ha, 4 weeks
Summary of the method: as §2

Capsella bursa-pastoris = test: Weeding effect in pre-emergence stage; details: 30 g/ha, 4 weeks
Summary of the method: as §2

Descurainia sophia = test: Weeding effect in pre-emergence stage; details: 30 g/ha, 4 weeks
Summary of the method: as §2

Setaria viridis [6] = test: Weeding effect in pre-emergence stage; details: 30 g/ha, 4 weeks
Summary of the method: as §2

Veronica didyma Tenore = test: Weeding effect in pre-emergence stage; details: 30 g/ha, 4 weeks
Summary of the method: as §2

Peanut = test: Pre-emergence stage, crop selectivity; details: 30 g/ha, 4 weeks
Summary of the method: as §2

Soybeans = test: Pre-emergence stage, crop selectivity; details: 30 g/ha, 4 weeks
Summary of the method: as §2

corn = test: Pre-emergence stage, crop selectivity; details: 30 g/ha, 4 weeks
Summary of the method: as §2

cotton = test: Pre-emergence stage, crop selectivity; details: 30 g/ha, 4 weeks
Summary of the method: as §2

Leptochloa chinensis = test: Weed control effect evaluation in rice field; details: rice field pot, 30 g/ha, 14 days after treatment
Source text: (§3) The activity level criteria for plant damage (i.e., growth control rate) are as follows:
(§4) Rice field soil was loaded into a 1/1,000,000 ha pot. The seeds of Echinochloa crusgalli. Scirpus juncoides. Bidens tripartita L., Monochoria vaginalis, and Leptochloa chinensis were sowed and gently covered with soil, then left to stand still in greenhouse in the state of 0.5-1 cm of water storage. The tuber of Sagittaria trifolia was planted in the next day or 2 days later. It was kept at 3-4 cm of water storage thereafter. The weeds were treated by dripping the WP or SC water diluents prepared according to the common preparation method of the compounds of the present invention with pipette homogeneously to achieve specified effective amount when Echinochloa crusgalli. Scirpus juncoides, Bidens tripartita L., Monochoria vaginalis, and Leptochloa chinensis reached 0.5 leaf stage and Sagittaria trifolia reached the time point of primary leaf stage.
(§5) The fertility condition of Echinochloa crusgalli. Scirpus juncoides. Bidens tripartita L., Monochoria vaginalis, Leptochloa chinensis and Sagittaria trifolia 14 days after the treatment of the compound of the invention and the fertility condition of rice 21 days after the treatment of the compound of the invention respectively with the naked eye. Evaluate the weed control effect with the above activity standard level. Many compounds show excellent activity and selectivity.

Monochoria vaginalis = test: Weed control effect evaluation in rice field; details: rice field pot, 30 g/ha, 14 days after treatment
Source text: as §3, §4, §5

Scirpus juncoides = test: Weed control effect evaluation in rice field; details: rice field pot, 30 g/ha, 14 days after treatment
Source text: as §3, §4, §5

Rice = test: Transplanted rice safety evaluation; details: transplanted japonica rice, 30 g/ha, 21 days after treatment
Protocol: as §3
In addition, the rice field soil that loaded into the 1/1,000,000 ha pot was leveled to keep water storage at 3-4 cm depth. The 5 leaf stage rice (japonica rice) was transplanted at 3 cm of transplanting depth the next day. The compound of the present invention was treated by the same way after 5 days of transplantation.
as §5

| SMILES | Weeding effect in post-emergence stage, Abutilon theophrasti (Abutilon theophrasti [1]; Dose 15 g/ha) | Weeding effect in post-emergence stage, Alopecurus japonicus (Alopecurus japonicus; Dose 15 g/ha) | Weeding effect in post-emergence stage, Digitaria sanguinalis (Digitaria sanguinalis; Dose 15 g/ha) | Weeding effect in post-emergence stage, Eleusine indica (Eleusine indica; Dose 15 g/ha) | activity level (growth control rate) Eleusine indica (Eleusine indica) | Weeding effect in post-emergence stage, Setaria viridis (Setaria viridis [2]; Dose 15 g/ha) | activity level (growth control rate) Amaranthus retroflexus (Amaranthus retroflexus [3]) | Weeding effect in post-emergence stage, Echinochloa crusgalli (Echinochloa crusgalli; Dose 15 g/ha) | activity level (growth control rate) Echinochloa crusgalli (Echinochloa crusgalli) | activity level (growth control rate) Abutilon theophrasti (Abutilon theophrasti [4]) | activity level (growth control rate) Amaranthus retroflexus (Amaranthus retroflexus [5]) | activity level (growth control rate) Capsella bursa-pastoris (Capsella bursa-pastoris) | activity level (growth control rate) Descurainia sophia (Descurainia sophia) | activity level (growth control rate) Setaria viridis (Setaria viridis [6]) | activity level (growth control rate) Veronica didyma Tenore (Veronica didyma Tenore) | plant damage level Peanut (Peanut) | plant damage level Soybeans (Soybeans) | plant damage level Corn (corn) | plant damage level Cotton (cotton) | further results |
| --- | --- | --- | --- | --- | --- | --- | --- | --- | --- | --- | --- | --- | --- | --- | --- | --- | --- | --- | --- | --- |
| COC(=O)C(C)O/N=C/c1cc(-n2c(=O)cc(C(F)(F)F)n(C)c2=O)c(F)cc1Cl (racemic) [Compound 194] | 5 (Level 5: growth control rate is above 85%) | 5 (Level 5: growth control rate is above 85%) | 5 (Level 5: growth control rate is above 85%) | 5 (Level 5: growth control rate is above 85%) | 4 (Level 4: growth control rate is greater than or equal to 60% and less than 85%) | 5 (Level 5: growth control rate is above 85%) | 5 (Level 5: growth control rate is above 85%) | 5 (Level 5: growth control rate is above 85%) | 4 (Level 4: growth control rate is greater than or equal to 60% and less than 85%) |  |  |  |  |  |  |  |  |  |  | Weeding effect in post-emergence stage, Abutilon theophrasti (Abutilon theophrasti [1]; Dose 7.5 g/ha): 5 (Level 5: growth control rate is above 85%); Weeding effect in post-emergence stage, Alopecurus japonicus (Alopecurus japonicus; Dose 7.5 g/ha): 4 (Level 4: growth control rate is greater than or equal to 60% and less than 85%); Weeding effect in post-emergence stage, Digitaria sanguinalis (Digitaria sanguinalis; Dose 7.5 g/ha): 5 (Level 5: growth control rate is above 85%); Weeding effect in post-emergence stage, Eleusine indica (Eleusine indica; Dose 7.5 g/ha): 5 (Level 5: growth control rate is above 85%); Weeding effect in post-emergence stage, Setaria viridis (Setaria viridis [2]; Dose 7.5 g/ha): 5 (Level 5: growth control rate is above 85%); Weeding effect in post-emergence stage, Echinochloa crusgalli (Echinochloa crusgalli; Dose 7.5 g/ha): 5 (Level 5: growth control rate is above 85%) |
| COC(=O)[C@@H](C)O/N=C/c1cc(-n2c(=O)n(C)c(=S)n(C)c2=O)c(F)cc1Cl [1(R)] | 5 (Level 5: growth control rate is above 85%) | 5 (Level 5: growth control rate is above 85%) | 5 (Level 5: growth control rate is above 85%) | 5 (Level 5: growth control rate is above 85%) | 5 (Level 5: growth control rate is above 85%) | 5 (Level 5: growth control rate is above 85%) | 5 (Level 5: growth control rate is above 85%) | 5 (Level 5: growth control rate is above 85%) | 4 (Level 4: growth control rate is greater than or equal to 60% and less than 85%) | 5 (Level 5: growth control rate is above 85%) | 5 (Level 5: growth control rate is above 85%) | 5 (Level 5: growth control rate is above 85%) | 5 (Level 5: growth control rate is above 85%) | 5 (Level 5: growth control rate is above 85%) | 5 (Level 5: growth control rate is above 85%) | 0 (Level 0: growth control rate is less than 5%) | 0 (Level 0: growth control rate is less than 5%) | 0 (Level 0: growth control rate is less than 5%) | 0 (Level 0: growth control rate is less than 5%) |  |
| CCOC(=O)[C@@H](C)O/N=C/c1cc(-n2c(=O)cc(C(F)(F)F)n(C)c2=O)c(F)cc1Cl [196(R)] | 5 (Level 5: growth control rate is above 85%) | 5 (Level 5: growth control rate is above 85%) | 5 (Level 5: growth control rate is above 85%) | 5 (Level 5: growth control rate is above 85%) |  | 5 (Level 5: growth control rate is above 85%) |  | 5 (Level 5: growth control rate is above 85%) |  | 5 (Level 5: growth control rate is above 85%) | 5 (Level 5: growth control rate is above 85%) | 5 (Level 5: growth control rate is above 85%) | 5 (Level 5: growth control rate is above 85%) | 5 (Level 5: growth control rate is above 85%) | 5 (Level 5: growth control rate is above 85%) | 0 (Level 0: growth control rate is less than 5%) | 0 (Level 0: growth control rate is less than 5%) | 0 (Level 0: growth control rate is less than 5%) | 0 (Level 0: growth control rate is less than 5%) | activity level (weed control effect) Leptochloa chinensis (Leptochloa chinensis): 5 (Level 5: growth control rate is above 85%); activity level (weed control effect) Monochoria vaginalis (Monochoria vaginalis): 5 (Level 5: growth control rate is above 85%); activity level (weed control effect) Scirpus juncoides (Scirpus juncoides): 5 (Level 5: growth control rate is above 85%); plant damage level Rice (Rice): 0 (Level 0: growth control rate is less than 5%) |
| COC(=O)C(C)O/N=C/c1cc(-n2c(=O)n(C)c(=S)n(C)c2=O)c(F)cc1Cl (stereo not drawn) [Compound 1] | 5 (Level 5: growth control rate is above 85%) | 5 (Level 5: growth control rate is above 85%) | 5 (Level 5: growth control rate is above 85%) | 5 (Level 5: growth control rate is above 85%) | 3 (Level 3: growth control rate is greater than or equal to 40% and less than 60%) | 5 (Level 5: growth control rate is above 85%) | 3 (Level 3: growth control rate is greater than or equal to 40% and less than 60%) | 5 (Level 5: growth control rate is above 85%) | 3 (Level 3: growth control rate is greater than or equal to 40% and less than 60%) |  |  |  |  |  |  |  |  |  |  |  |
